Experiments:
[1] = target: T1, Solute carrier family 22 member 1 (Rattus norvegicus, UniProt Q63089); assay type: functional, cell-based, MDCK
T1 sequence (Q63089 whole entry): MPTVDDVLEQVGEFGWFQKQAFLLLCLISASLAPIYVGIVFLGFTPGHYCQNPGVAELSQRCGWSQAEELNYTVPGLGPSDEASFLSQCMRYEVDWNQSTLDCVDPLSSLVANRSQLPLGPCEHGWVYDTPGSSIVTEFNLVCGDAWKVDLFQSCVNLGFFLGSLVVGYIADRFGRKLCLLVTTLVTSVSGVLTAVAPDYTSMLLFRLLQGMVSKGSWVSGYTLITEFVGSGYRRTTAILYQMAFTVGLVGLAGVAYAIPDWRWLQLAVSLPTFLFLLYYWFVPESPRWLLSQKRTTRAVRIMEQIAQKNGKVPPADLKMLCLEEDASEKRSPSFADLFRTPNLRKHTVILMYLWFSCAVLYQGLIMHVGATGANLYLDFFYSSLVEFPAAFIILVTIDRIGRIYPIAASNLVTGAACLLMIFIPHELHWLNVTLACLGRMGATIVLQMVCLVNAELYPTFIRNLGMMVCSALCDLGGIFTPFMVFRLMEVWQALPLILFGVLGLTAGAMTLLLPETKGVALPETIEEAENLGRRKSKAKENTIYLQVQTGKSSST

[2] = target: T2, Solute carrier family 22 member 2 (Rattus norvegicus, UniProt Q9R0W2); assay type: functional, cell-based, MDCK
T2 sequence (Q9R0W2 whole entry): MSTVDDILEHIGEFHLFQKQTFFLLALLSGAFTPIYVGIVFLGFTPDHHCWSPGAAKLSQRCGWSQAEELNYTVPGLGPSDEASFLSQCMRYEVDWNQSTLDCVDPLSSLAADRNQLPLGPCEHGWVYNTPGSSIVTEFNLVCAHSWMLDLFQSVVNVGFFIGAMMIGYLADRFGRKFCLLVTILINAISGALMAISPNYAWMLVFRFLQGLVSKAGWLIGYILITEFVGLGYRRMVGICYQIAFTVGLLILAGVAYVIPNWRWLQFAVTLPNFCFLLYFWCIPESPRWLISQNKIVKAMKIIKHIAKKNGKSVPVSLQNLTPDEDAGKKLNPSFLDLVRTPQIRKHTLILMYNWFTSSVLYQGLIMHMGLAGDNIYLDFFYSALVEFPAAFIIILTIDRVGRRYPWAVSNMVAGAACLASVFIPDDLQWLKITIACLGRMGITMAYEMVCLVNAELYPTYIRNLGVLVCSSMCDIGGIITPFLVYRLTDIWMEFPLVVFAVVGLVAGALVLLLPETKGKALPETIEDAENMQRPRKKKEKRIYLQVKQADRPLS

[3] = target: T1, Solute carrier family 22 member 1; assay: TP_TRANSPORTER: inhibition of TEA uptake in OCT1-expressing MDCK cells; assay type: functional, cell-based
[4] = target: T2, Solute carrier family 22 member 2; assay: TP_TRANSPORTER: inhibition of TEA uptake in OCT2-expressing MDCK cells; assay type: functional, cell-based

Row | Structure (SMILES) | IC50 [1] [µM] | IC50 [2] [µM] | Ki [3] [µM] | Ki [4] [µM]
1 | CCN(CC)CCNC(=O)c1ccc(NC(C)=O)cc1 [ACECAINIDE] | 8.8 | 5 |  | 
2 | N=C(N)NC(=O)c1nc(Cl)c(N)nc1N [AMILORIDE] |  |  | 6.9 | 4.7
3 | CN(C)CCC(c1ccc(Cl)cc1)c1ccccn1 (stereo not given) [CHLORPHENIRAMINE] | 14 | 26 |  | 
4 | C[N+](C)(C)CCO [CHOLINE] | 1450 | 1450 |  | 
5 | CC(C)N(CCC(C(N)=O)(c1ccccc1)c1ccccn1)C(C)C (stereo not given) [DISOPYRAMIDE] |  |  | 62 | 30
6 | NCCc1ccc(O)c(O)c1 [DOPAMINE] |  |  | 603 | 347
7 | CNC[C@H](O)c1ccc(O)c(O)c1 [EPINEPHRINE] |  |  | 1600 | 1190
8 | NCCc1c[nH]cn1 [HISTAMINE] |  |  | 141 | 171
9 | CN(C)CCCN1c2ccccc2CCc2ccccc21 [IMIPRAMINE] | 16 | 9.9 |  | 
10 | CCN(CC)CCNC(=O)c1ccc(N)cc1 [PROCAINAMIDE] |  |  |  | 36
11 | NCCc1c[nH]c2ccc(O)cc12 [SEROTONIN] |  |  | 390 | 242
12 | CCCC[N+](CCCC)(CCCC)CCCC [TETRABUTHYLAMMONIUM] | 7.9 | 5.7 |  | 
13 | C[N+](C)(C)C [TETRAMETHYLAMMONIUM] |  | 1670 |  | 
14 | CCCCC[N+](CCCCC)(CCCCC)CCCCC [TETRAPENTYLAMMONIUM] | 1.3 | 1.7 |  | 
15 | CCC[N+](CCC)(CCC)CCC [TETRAPROPYLAMMONIUM] | 23 | 39 |  | 
16 | Cc1ncc(C[n+]2csc(CCO)c2C)c(N)n1 [THIAMINE ION] |  |  | 736 | 646

Source: ChEMBL document CHEMBL2074017, “Distinct characteristics of organic cation transporters, OCT1 and OCT2, in the basolateral membrane of renal tubules” (Pharm Res, 2001)
